# Experimental data from patent publication US10385070B2, “Chroman-spirocyclic piperidine amides as modulators of ion channels” (VERTEX PHARMACEUTICALS INCORPORATED, priority 2011, dated 2019).
# Molecular target: human NaV subtype, like NaV 1.7 (Homo sapiens, UniProt Q15858)
# Experiment: E-VIPR optical membrane potential assay with electrical stimulation
# Format: cell-based
# Conditions: active against one or more sodium channels; assay and NaV subtype not specified for Table 3; read-out: IC50 Binned Activity Data
# Source text: Assays for Detecting and Measuring NaV Inhibition Properties of Compound E-VIPR Optical Membrane Potential Assay Method with Electrical Stimulation
# Sodium channels are voltage-dependent proteins that can be activated by inducing membrane voltage changes by applying electric fields. The electrical stimulation instrument and methods of use are described in Ion Channel Assay Methods PCT/US01/21652, herein incorporated by reference and are referred to as E-VIPR. The instrument comprises a microtiter plate handler, an optical system for exciting the coumarin dye while simultaneously recording the coumarin and oxonol emissions, a waveform generator, a current- or voltage-controlled amplifier, and a device for inserting electrodes in well. Under integrated computer control, this instrument passes user-programmed electrical stimulus protocols to cells within the wells of the microtiter plate.
# 24 hours before the assay on E-VIPR, HEK cells expressing human NaV subtype, like NaV 1.7, are seeded in 384-well poly-lysine coated plates at 15,000-20,000 cells per well. Other subtypes are performed in an analogous mode in a cell line expressing the NaV of interest. HEK cells are grown in media (exact composition is specific to each cell type and NaV subtype) supplemented with 10% FBS (Fetal Bovine Serum, qualified; GibcoBRL #16140-071) and 1% Pen-Strep (Penicillin-Streptomycin; GibcoBRL #15140-122). Cells are grown in vented cap flasks, in 90% humidity and 10% CO2, to 100% confluence. They are usually split by trypsinization 1:10 or 1:20, depending on scheduling needs, and grown for 2-3 days before the next split.
# 100 mg/mL Pluronic F-127 (Sigma #P2443), in dry DMSO
# Compound Plates: 384-well round bottom plate, e.g. Corning 384-well Polypropylene Round Bottom #3656
# Cell Plates: 384-well tissue culture treated plate, e.g. Greiner #781091-1B
# Bath1 buffer. Glucose 10 mM (1.8 g/L), Magnesium Chloride (Anhydrous), 1 mM (0.095 g/L), Calcium Chloride, 2 mM (0.222 g/L), HEPES 10 mM (2.38 g/L), Potassium Chloride, 4.5 mM (0.335 g/L), Sodium Chloride 160 mM (9.35 g/L).
# Hexyl Dye Solution: Bath1 Buffer+0.5% β-cyclodextrin (make this prior to use, Sigma #C4767), 8 μM CC2-DMPE+2.5 μM DiSBAC6(3). To make the solution Add volume of 10% Pluronic F127 stock equal to volumes of CC2-DMPE+DiSBAC6(3). The order of preparation is first mix Pluronic and CC2-DMPE, then add DiSBAC6(3) while vortexing, then add Bath1+β-Cyclodextrin.
# 1) Pre-spot compounds (in neat DMSO) into compound plates. Vehicle control (neat DMSO), the positive control (20 mM DMSO stock tetracaine, 125 μM final in assay) and test compounds are added to each well at 160× desired final concentration in neat DMSO. Final compound plate volume will be 80 μL (80-fold intermediate dilution from 1 μL DMSO spot; 160-fold final dilution after transfer to cell plate). Final DMSO concentration for all wells in assay is 0.625%.
# 2) Prepare Hexyl Dye Solution.
# 3) Prepare cell plates. On the day of the assay, medium is aspirated and cells are washed three times with 100 μL of Bath1 Solution, maintaining 25 μL residual volume in each well.
# 4) Dispense 25 μL per well of Hexyl Dye Solution into cell plates. Incubate for 20-35 minutes at room temp or ambient conditions.
# 5) Dispense 80 μL per well of Bath1 into compound plates. Acid Yellow-17 (1 mM) is added and Potassium Chloride can be altered from 4.5 to 20 mM depending on the NaV subtype and assay sensitivity.
# 6) Wash cell plates three times with 100 μL per well of Bath1, leaving 25 μL of residual volume. Then transfer 25 uL per well from Compound Plates to Cell Plates. Incubate for 20-35 minutes at room temp/ambient condition
# 7) Read Plate on E-VIPR. Use the current-controlled amplifier to deliver stimulation wave pulses for typically 9 seconds and a scan rate of 400 Hz. A pre-stimulus recording is performed for 0.5 seconds to obtain the un-stimulated intensities baseline. […]
# human NaV subtype, like NaV 1.7, sequence (Q15858 whole entry): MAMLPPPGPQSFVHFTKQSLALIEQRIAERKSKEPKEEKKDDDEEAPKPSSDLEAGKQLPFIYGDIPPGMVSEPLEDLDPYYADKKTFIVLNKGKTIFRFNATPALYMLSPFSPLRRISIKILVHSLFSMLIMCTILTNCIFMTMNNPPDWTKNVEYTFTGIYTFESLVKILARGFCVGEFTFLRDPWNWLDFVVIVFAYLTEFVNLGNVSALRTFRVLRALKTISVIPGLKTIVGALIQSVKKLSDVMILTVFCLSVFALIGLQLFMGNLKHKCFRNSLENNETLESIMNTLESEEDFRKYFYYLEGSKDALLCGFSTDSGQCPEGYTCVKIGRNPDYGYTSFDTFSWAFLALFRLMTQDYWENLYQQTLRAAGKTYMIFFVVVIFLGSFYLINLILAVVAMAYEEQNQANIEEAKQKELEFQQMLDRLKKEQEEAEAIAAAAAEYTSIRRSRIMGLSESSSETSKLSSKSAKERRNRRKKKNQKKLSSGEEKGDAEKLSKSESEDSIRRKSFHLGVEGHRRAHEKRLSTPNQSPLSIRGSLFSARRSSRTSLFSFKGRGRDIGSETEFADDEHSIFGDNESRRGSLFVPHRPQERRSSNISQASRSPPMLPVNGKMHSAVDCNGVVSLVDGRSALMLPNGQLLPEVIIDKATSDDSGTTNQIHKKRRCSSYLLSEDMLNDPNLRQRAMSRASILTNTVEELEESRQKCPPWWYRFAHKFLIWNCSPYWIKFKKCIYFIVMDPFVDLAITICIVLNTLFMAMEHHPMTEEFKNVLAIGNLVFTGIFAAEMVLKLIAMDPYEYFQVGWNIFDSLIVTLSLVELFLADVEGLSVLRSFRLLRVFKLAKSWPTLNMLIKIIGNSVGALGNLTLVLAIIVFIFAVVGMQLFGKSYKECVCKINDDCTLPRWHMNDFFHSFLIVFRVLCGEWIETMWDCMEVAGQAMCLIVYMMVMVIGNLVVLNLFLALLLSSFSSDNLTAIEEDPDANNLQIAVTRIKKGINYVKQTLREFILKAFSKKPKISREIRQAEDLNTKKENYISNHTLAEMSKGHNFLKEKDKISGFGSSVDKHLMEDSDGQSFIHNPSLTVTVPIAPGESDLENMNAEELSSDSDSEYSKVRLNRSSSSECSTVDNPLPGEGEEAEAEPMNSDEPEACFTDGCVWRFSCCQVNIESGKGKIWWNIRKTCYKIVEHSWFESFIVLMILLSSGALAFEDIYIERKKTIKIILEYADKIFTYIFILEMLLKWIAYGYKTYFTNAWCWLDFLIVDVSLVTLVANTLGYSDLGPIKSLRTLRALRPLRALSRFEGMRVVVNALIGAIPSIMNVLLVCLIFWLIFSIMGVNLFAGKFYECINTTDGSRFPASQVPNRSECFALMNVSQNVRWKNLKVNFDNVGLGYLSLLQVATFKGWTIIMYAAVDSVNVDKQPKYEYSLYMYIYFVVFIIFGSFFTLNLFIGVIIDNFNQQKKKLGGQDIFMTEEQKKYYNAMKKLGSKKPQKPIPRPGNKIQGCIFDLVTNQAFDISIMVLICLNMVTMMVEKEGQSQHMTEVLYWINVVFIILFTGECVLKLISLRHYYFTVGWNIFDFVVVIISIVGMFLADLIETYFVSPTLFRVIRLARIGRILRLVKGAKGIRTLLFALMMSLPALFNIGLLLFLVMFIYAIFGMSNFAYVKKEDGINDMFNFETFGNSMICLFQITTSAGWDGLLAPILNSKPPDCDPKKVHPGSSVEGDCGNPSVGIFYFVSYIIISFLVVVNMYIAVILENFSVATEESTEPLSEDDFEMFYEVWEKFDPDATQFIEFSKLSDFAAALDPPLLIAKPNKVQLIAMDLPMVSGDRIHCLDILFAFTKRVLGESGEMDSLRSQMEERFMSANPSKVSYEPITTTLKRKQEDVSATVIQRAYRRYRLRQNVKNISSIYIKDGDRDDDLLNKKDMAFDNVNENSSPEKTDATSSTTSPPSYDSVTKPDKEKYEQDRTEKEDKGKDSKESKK
row,IC50 [nM],SMILES
1,≤ 2000,COc1ccc(C(=O)N2CCC3(CC2)C[C@H](OC(C)C)c2ccccc2O3)cc1C [Compound 133]
2,≤ 2000,COc1cc(C(=O)N2CCC3(CC2)CC(OC(C)(C)C)c2ccccc2O3)ccc1OC(C)C (centres unmarked) [Compound 128]
3,≤ 2000,Cc1cc(C(=O)N2CCC3(CC2)CC(OC(C)C)c2nn(C)cc2O3)ccc1OC(C)C (centres unmarked) [Compound 104]
4,2000 to 5000,CC(C)O[C@@H]1CC2(CCN(C(=O)c3ccc(S(=O)(=O)C(C)C)cc3)CC2)Oc2c(F)cc(F)cc21 [Compound 153]
5,≤ 2000,CC(C)O[C@@H]1CC2(CCN(C(=O)c3ccccc3OC(F)(F)F)CC2)Oc2ccc(F)cc21 [Compound 131]
6,≤ 2000,Cc1cc(OC(C)C)ccc1C(=O)N1CCC2(CC1)C[C@@H](OC(C)C)c1ccccc1O2 [Compound 169]
7,> 5000,CC(C)Oc1ccc(C(=O)N2CCC3(CC2)C[C@@H](OC(C)C)c2ccccc2O3)cn1 [Compound 124]
8,≤ 2000,COc1cc(C(=O)N2CCC3(CC2)C[C@@H](OC(C)C)c2cc(F)ccc2O3)ccc1OCCO [Compound 117]
9,≤ 2000,COc1cc(C(=O)N2CCC3(CC2)CC(OC2CC2)c2ccccc2O3)ccc1OC(C)C (centres unmarked) [Compound 127]
10,≤ 2000,COc1cc(C(=O)N2CCC3(CC2)CC(Oc2ccccc2C#N)c2ccccc2O3)ccc1OC(C)C (centres unmarked) [Compound 152]
11,≤ 2000,CC(C)Oc1ccc(C(=O)N2CCC3(CC2)C[C@@H](OC(C)C)c2cc(F)ccc2O3)cc1CO [Compound 148]
12,≤ 2000,COCC1CC2(CCN(C(=O)c3ccc(OC(C)C)c(OC)c3)CC2)Oc2ccccc21 (centres unmarked) [Compound 168]
13,≤ 2000,CC(C)Oc1ccc(C(=O)N2CCC3(CC2)C[C@@H](OC(C)C)c2cc(F)ccc2O3)cc1F [Compound 112]
14,≤ 2000,CC(C)O[C@H]1CC2(CCN(C(=O)c3ccc(C(C)(C)O)c(F)c3)CC2)Oc2cc(F)ccc21 [Compound 154]
15,≤ 2000,COc1cc(C(=O)N2CCC3(CC2)C[C@@H](OC(C)C)c2cc(F)ccc2O3)ccc1O[C@@H]1CCOC1 [Compound 155]
16,≤ 2000,COc1cc(C(=O)N2CCC3(CC2)C[C@H](OC(C)C)c2ccccc2O3)ccc1OCCCO [Compound 106]
17,≤ 2000,CC(C)CS(=O)(=O)c1ccc(C(=O)N2CCC3(CC2)C[C@@H](OC(C)C)c2cc(F)ccc2O3)cc1 [Compound 147]
18,≤ 2000,CC(C)O[C@@H]1CC2(CCN(C(=O)c3ccc([S+]([O-])C(C)C)cc3)CC2)Oc2ccc(F)cc21 (some centres unmarked) [Compound 161]
19,≤ 2000,COc1cc(C(=O)N2CCC3(CC2)CC(OC(C)C)c2cccc(F)c2O3)ccc1OC(C)C (centres unmarked) [Compound 177]

# More lines, now with the values behind:
row,SMILES,IC50 [nM]
1,COc1cc(C(=O)N2CCC3(CC2)CC(OC(C)C)c2nn(C(C)(C)C)cc2O3)ccc1OC(C)C (centres unmarked) [Compound 34],≤ 2000
2,CCS(=O)(=O)c1ccc(C(=O)N2CCC3(CC2)C[C@@H](OC(C)C)c2cc(F)cc(F)c2O3)cc1C [Compound 4],2000 to 5000
3,CC(C)O[C@@H]1CC2(CCN(C(=O)c3ccc(N4CC5CC4CO5)cn3)CC2)Oc2ccc(F)cc21 (some centres unmarked) [Compound 95],≤ 2000
4,CCO[C@@H]1CC2(CCN(C(=O)c3ccc(S(=O)(=O)C(C)C)cc3)CC2)Oc2ccc(F)cc21 [Compound 32],2000 to 5000
5,CCS(=O)(=O)c1ccc(C(=O)N2CCC3(CC2)C[C@@H](OC(C)C)c2cc(F)ccc2O3)cc1C [Compound 9],≤ 2000
6,COc1cc(C(=O)N2CCC3(CC2)C[C@@H](OC(C)C)c2cc(F)ccc2O3)ccc1C(C)(C)O [Compound 10],≤ 2000
7,COCOC1=Cc2ccccc2OC12CCN(C(=O)c1ccc(OC(C)C)c(OC)c1)CC2 [Compound 44],≤ 2000
8,Cc1cc(C(=O)N2CCC3(CC2)C[C@@H](OC(C)C)c2ccccc2O3)ccc1O [Compound 36],≤ 2000
9,COc1cc(C(=O)N2CCC3(CC2)C[C@H](OC(C)C)c2ccccc2O3)ccc1C(C)(C)CO [Compound 71],≤ 2000
10,COc1cc(C(=O)N2CCC3(CC2)CC(COCC(F)F)c2ccccc2O3)ccc1OC(C)C (centres unmarked) [Compound 23],≤ 2000
11,CCN(CC)CCOC1CC2(CCN(C(=O)c3ccc(OC(C)C)c(OC)c3)CC2)Oc2ccccc21 (centres unmarked) [Compound 38],> 5000
12,Cc1cc(C(F)F)n2ncc(C(=O)N3CCC4(CC3)C[C@@H](OC(C)C)c3ccccc3O4)c2n1 [Compound 87],≤ 2000
13,CC(C)OCC1CC2(CCN(C(=O)c3ccc(C(C)(C)O)cc3)CC2)Oc2ccccc21 (centres unmarked) [Compound 35],≤ 2000
14,COc1cc(C(=O)N2CCC3(CC2)CC(COC(C)C)c2ccccc2O3)ccc1OC(C)C (centres unmarked) [Compound 2],≤ 2000
15,Cc1cc(C(=O)N2CCC3(CC2)CC(OC(C)C)c2ccncc2O3)ccc1OC(C)C (centres unmarked) [Compound 37],≤ 2000
16,COC1CCN(c2ccc(C(=O)N3CCC4(CC3)C[C@@H](OC(C)C)c3cc(F)ccc3O4)nc2)CC1 [Compound 41],≤ 2000
17,Cc1cc(S(C)(=O)=O)ccc1C(=O)N1CCC2(CC1)C[C@@H](OC(C)C)c1cc(F)ccc1O2 [Compound 85],2000 to 5000

row,SMILES,IC50 [nM]
1,CC(C)O[C@@H]1CC2(CCN(C(=O)c3ccc(C(C)(C)O)c(F)c3)CC2)Oc2ccccc21 [Compound 31],≤ 2000
2,CCc1ccc(C(=O)N2CCC3(CC2)C[C@@H](OC(C)C)c2ccccc2O3)cc1OC [Compound 50],≤ 2000
3,CC(C)O[C@@H]1CC2(CCN(C(=O)c3cccc4cccnc34)CC2)Oc2ccccc21 [Compound 14],≤ 2000
4,Cc1cc(S(=O)(=O)C(C)C)ccc1C(=O)N1CCC2(CC1)C[C@@H](OC(C)C)c1cc(F)ccc1O2 [Compound 11],≤ 2000
5,COc1cc(C(=O)N2CCC3(CC2)C[C@@H](O)c2cc(F)ccc2O3)ccc1OC(C)C [Compound 98],≤ 2000
6,Cc1cc(C(=O)N2CCC3(CCc4ccccc4O3)CC2)ccc1OC(C)C [Compound 96],≤ 2000
7,C=CCOC1CC2(CCN(C(=O)c3ccc(OC(C)C)c(OC)c3)CC2)Oc2ccccc21 (centres unmarked) [Compound 21],≤ 2000
8,Cc1nc(C(=O)N2CCC3(CC2)C[C@@H](OC(C)C)c2cc(F)ccc2O3)ccc1S(=O)(=O)C(C)C [Compound 101],> 5000
9,CC(C)O[C@@H]1CC2(CCN(C(=O)c3ccc(N4CCCCC4C)cn3)CC2)Oc2ccc(F)cc21 (some centres unmarked) [Compound 54],≤ 2000
10,Cc1cc(C(=O)N2CCC3(CC2)C[C@H](OC(C)C)c2ccccc2O3)ccc1C(C)(C)O [Compound 26],≤ 2000
11,Cc1cc(C(=O)N2CCC3(CC2)C[C@H](O)c2cc(F)ccc2O3)ccc1OC(C)C [Compound 77],≤ 2000
12,CC(C)O[C@@H]1CC2(CCN(C(=O)c3ccc(N4CCN(S(C)(=O)=O)CC4)cn3)CC2)Oc2ccc(F)cc21 [Compound 17],≤ 2000
13,COc1cc(C(=O)N2CCC3(CC2)CC(C(C)OC)c2ccccc2O3)ccc1OC(C)C (centres unmarked) [Compound 6],≤ 2000
14,CCOC1Cc2ccccc2OC12CCN(C(=O)c1ccc(OC(C)C)c(OC)c1)CC2 (centres unmarked) [Compound 100],≤ 2000
15,Cc1cc(C(=O)N2CCC3(CC2)CC(OC(C)C)c2cccc(F)c2O3)ccc1S(=O)(=O)C(C)C (centres unmarked) [Compound 90],≤ 2000
16,CC(C)O[C@@H]1CC2(CCN(C(=O)c3ccc4[nH]ncc4c3)CC2)Oc2ccccc21 [Compound 28],2000 to 5000
17,COc1nc(C)ccc1C(=O)N1CCC2(CC1)C[C@@H](OC(C)C)c1ccccc1O2 [Compound 69],≤ 2000
